Columns and labels:
Format in all cases: cell-based, mouse
NLRP3 inflammasome = NLRP3 inflammasome activation in LPS-primed BMDM
BMDM [1] = assay: Q-PCR quantitation of cytokine mRNAs in LPS-stimulated BMDM
Procedure: RNA was extracted using AllPrep DNA/RNA Mini kit, and cDNA was synthesized using SuperScript™ VILO™ cDNA Synthesis Kit. mRNA expression was determined by QPCR in a CFX96 thermal cycler (Biorad) as described (Zhong et al., 2016). Data are presented in arbitrary units and calculated by the 2^(−ΔΔCT) method. Primer sequences were obtained from the NIH qPrimerDepot (http://mouseprimerdepot.nci.nih.gov) and provided by Integrated DNA technologies.

BMDM [2] = assay: Cytokine secretion by LPS-stimulated BMDM (ELISA); conditions: LPS-stimulated BMDM, metformin 0.5 mM 16 hrs
Source text: Paired antibodies (capture and detection) and standard recombinant mouse IL-1β (R&D Systems), and TNF and IL-6 (eBioscience) were used to determine mouse cytokine concentrations according to manufacturer's instructions.

[3] = BMDM, metformin 0.5 mM 16 h, LPS 4 h
[4] = BMDM, metformin 0.5 mM 16 h, LPS

For `CN(C)C(=N)NC(=N)N` [metformin, N,N-dimethylbiguanide], the “nigericin- and ATP-induced ASC speck formation” value (NLRP3 inflammasome; BMDM, metformin 0.5 mM 16 h) was “inhibited”, the “expression of inflammasome components NLRP3, ASC, pro-Casp1 and NEK7” value (NLRP3 inflammasome; [3]) was “no effect” and the “pro-IL 1β protein” value (NLRP3 inflammasome; [3]) was “modestly decreased”. The “inhibition of nigericin-induced ASC specks” value (NLRP3 inflammasome; BMDM, nigericin) was “incomplete”, the “effect of AMPKα1 ablation on inhibition of Casp1 activation or IL-1β processing and secretion by metformin” value (NLRP3 inflammasome; LPS-primed Ampkα1−/− BMDM stimulated with ATP) was “no effect” and the LDH release (NLRP3 inflammasome; LPS-primed BMDM with NLRP3 agonists, metformin 0.5 mM 16 hrs) was “reduced”. For the same compound, the “gasdermin D (GSDMD) cleavage” value (NLRP3 inflammasome; LPS-primed BMDM, metformin 0.5 mM 16 h) was “inhibited”, the “Casp1 activation and pro-IL-1β processing to mature IL-1β” value (NLRP3 inflammasome; LPS-primed macrophages with ATP, nigericin, alum or MSU, metformin 0.5 mM 16 h) was “inhibited” and the “IL-1β and Casp1 p20 release” value (NLRP3 inflammasome; Ndufs4-deficient BMDM, LPS + ATP, metformin 0.5 mM 16 hrs) was “did not further reduce”. For the same compound, the “effect on Casp1 activation and pro-IL-1β processing” value (NLRP3 inflammasome; nigericin-challenged macrophages) was “relatively modest”, the “Casp1 activation and IL-1β secretion” value (NLRP3 inflammasome; p62- and ATG7-deficient macrophages, LPS + ATP) was “still inhibited” and the “Il1b and Il6 mRNA after metformin treatment” value (BMDM [1]; AMPKα1 silenced (shPrkaa1) LPS-treated macrophages) was “still declined”. For the same compound, the “decline in Il1b and Il6 mRNA induction by LPS” value (BMDM [1]; BMDM, metformin 0.5 mM 16 h) was 30-50%, the “induction of Ifnb and Ifng mRNAs” value (BMDM [1]; [4]) was “did not inhibit induction” and the “induction of Il10 mRNA” value (BMDM [1]; [4]) was “potentiated induction”. For the same compound, the “other cytokine and chemokine mRNAs (Tnf, Il12, Il23, Ccl2, Ccl3, Ccl4, Ccl5)” value (BMDM [1]; BMDM, metformin 0.5 mM 16 h, LPS 100 ng/ml 4 hrs) was “little effect”, the “Il1b and Il6 mRNA expression” value (BMDM [1]; LPS-stimulated Il10−/− BMDM) was “still inhibited” and the IL-6 secretion (BMDM [2]) was “inhibited”. The TNF release (BMDM [2]) was “unaffected”.
